The NIST ThermoML archive (doi:10.1016/j.tca.2016.01.003)
Numbers after ± are expanded uncertainties.

What was measured:
[1] = Crystal; DTA
[2] = Molar enthalpy of transition or fusion; details: Crystal; DSC

CN1C(=O)N[C@H]2NC(=O)N(C)[C@H]21
Normal melting temperature [1]: 303 ± 0.6 °C | Molar enthalpy of transition or fusion [2]: 10.3 ± 0.239 kcal/mol
